Test results reported in PubChem BioAssay AID1259407 (Chemical Carcinogenesis Research Information System (CCRIS), 2018).
Active and inactive are the calls of the source. No rule for the calls is given here.

System: CCRIS mutagenicity, Ames/micronucleus/aberration tests
Assay: CCRIS mutagenicity studies

Measured: mutagenic call

C=CCBr
inactive: End Point: IN VITRO CHROMOSOMAL ABERRATIONS, Test System: CHL CELLS, Metabolic Activation: RAT, LIVER, S-9, SODIUM PHENOBARBITAL AND 5,6-BENZOFLAVONE inactive; negative; authors report equivocal results for structural changes at 0.06 mg/ml | End Point: In vivo micronucleus, Species: Mouse, Strain/Sex: C57BL/6/Male, Route: Oral inactive; negative | End Point: In vivo micronucleus, Test System: Peripheral blood normochromatic erythrocytes, Species: Mouse, Strain/Sex: C57BL/6/Female, Route: Oral inactive; negative | End Point: In vivo micronucleus, Test System: Peripheral blood normochromatic erythrocytes, Species: Mouse, Strain/Sex: FVB/N/Female, Route: Oral inactive; negative | End Point: In vivo micronucleus, Test System: Peripheral blood normochromatic erythrocytes, Species: Mouse, Strain/Sex: FVB/N/Male, Route: Oral inactive; negative | End Point: In vivo micronucleus, Test System: Peripheral blood normochromatic erythrocytes, Species: Mouse, Strain/Sex: P53 Haploinsufficient/Female, Route: Oral inactive; negative | End Point: In vivo micronucleus, Test System: Peripheral blood normochromatic erythrocytes, Species: Mouse, Strain/Sex: P53 Haploinsufficient/Male, Route: Oral inactive; negative | End Point: In vivo micronucleus, Test System: Peripheral blood normochromatic erythrocytes, Species: Mouse, Strain/Sex: Tg.AC Hemizygous/Female, Route: Oral inactive; negative | End Point: In vivo micronucleus, Test System: Peripheral blood normochromatic erythrocytes, Species: Mouse, Strain/Sex: Tg.AC Hemizygous/Male, Route: Oral inactive; negative | Test System: Ames Salmonella typhimurium, Strain/Indicator: TA98, Metabolic Activation: Hamster, Liver, S-9, Aroclor 1254 (30%), Method: Standard plate inactive; negative | Test System: Ames Salmonella typhimurium, Strain/Indicator: TA98, Metabolic Activation: None, Method: Standard plate inactive; negative | Test System: Ames Salmonella typhimurium, Strain/Indicator: TA98, Metabolic Activation: Rat, Liver, S-9, Aroclor 1254 (30%), Method: Standard plate inactive; negative
active: End Point: IN VITRO CHROMOSOMAL ABERRATIONS, Test System: CHL CELLS, Metabolic Activation: NONE active; positive (structural changes) | Test System: Ames Salmonella typhimurium, Strain/Indicator: TA100, Metabolic Activation: Hamster, Liver, S-9, Aroclor 1254 (30%), Method: Standard plate active; positive (weak response) | Test System: Ames Salmonella typhimurium, Strain/Indicator: TA100, Metabolic Activation: None, Method: Standard plate active; positive | Test System: Ames Salmonella typhimurium, Strain/Indicator: TA100, Metabolic Activation: Rat, Liver, S-9, Aroclor 1254 (30%), Method: Standard plate active; positive

Cc1cc2ccccc2c2ccc3ccccc3c12
inactive: Test System: AMES SALMONELLA TYPHIMURIUM, Strain/Indicator: TA98, Metabolic Activation: NONE, Method: PREINCUBATION inactive; negative | Test System: AMES SALMONELLA TYPHIMURIUM, Strain/Indicator: TA100, Metabolic Activation: NONE, Method: PREINCUBATION inactive; negative | Test System: AMES SALMONELLA TYPHIMURIUM, Strain/Indicator: TA100, Metabolic Activation: NONE, Method: STANDARD PLATE inactive; negative | Test System: AMES SALMONELLA TYPHIMURIUM, Strain/Indicator: TA100, Metabolic Activation: RAT, LIVER, MICROSOMES, 5-METHYLCHRYSENE, Method: STANDARD PLATE inactive; negative | Test System: AMES SALMONELLA TYPHIMURIUM, Strain/Indicator: TA100, Metabolic Activation: RAT, LIVER, MICROSOMES, Method: STANDARD PLATE inactive; negative
active: End Point: Chinese hamster lung fibroblasts, Strain/Indicator: V79MZ/HPRT/6-Thioguanidine, Metabolic Activation: Stably transfected human CYP1A1 (hCYP1A1), Method: Preincubation active; positive. highly potent. protection against mutagenicity by human glutathione s- | End Point: Chinese hamster lung fibroblasts, Strain/Indicator: V79MZ/HPRT/6-Thioguanidine, Metabolic Activation: Stably transfected human CYP1B1 (hCYP1B1), Method: Preincubation active; positive. highly potent. protection against mutagenicity by human glutathione s- | Test System: AMES SALMONELLA TYPHIMURIUM, Strain/Indicator: TA98, Metabolic Activation: RAT, LIVER, S-9, AROCLOR 1254, Method: STANDARD PLATE active; positive | Test System: AMES SALMONELLA TYPHIMURIUM, Strain/Indicator: TA98, Metabolic Activation: RAT, LIVER, S-9, Method: PREINCUBATION active; positive | Test System: AMES SALMONELLA TYPHIMURIUM, Strain/Indicator: TA100, Metabolic Activation: RAT, LIVER, MICROSOMES, AROCLOR 1254, Method: STANDARD PLATE active; positive | Test System: AMES SALMONELLA TYPHIMURIUM, Strain/Indicator: TA100, Metabolic Activation: RAT, LIVER, S-9, AROCLOR 1254, Method: STANDARD PLATE active; positive | Test System: AMES SALMONELLA TYPHIMURIUM, Strain/Indicator: TA100, Metabolic Activation: RAT, LIVER, S-9, Method: PREINCUBATION active; positive
